# Data taken from paper PMC12543283, “TastepepAI: An artificial intelligence platform for taste peptide de novo design” (PLOS Computational Biology, 2025).
# Values joined by “and” are separate entries in the source; they are usually repeats but may differ in a detail not shown here. Identical values can stand only once. Ends that are not written are not given here.
# What was measured:
# [1] = test system: human bronchial epithelial cells (BEAS-2B)
# [2] = test system: human embryonic kidney cells (HEK293T)
# Protocol: (§1) The cytotoxicity of 73 synthetic peptides was evaluated using four human cell lines: human pancreatic ductal epithelial cells (HPNE), human embryonic kidney cells (HEK293T), human umbilical vein endothelial cells (HUVEC), and human bronchial epithelial cells (BEAS-2B). When cell density reached 70% confluence, the complete culture medium was replaced with serum-free maintenance medium, and peptides were added at a final concentration of 100 μM for 36 h. Control groups received only serum-free maintenance medium without peptides. Cell proliferation was assessed using the CCK-8 assay kit (Solarbio, CA1210) according to the manufacturer’s instructions.
# [3] = test system: human pancreatic ductal epithelial cells (HPNE)
# [4] = Electronic tongue analysis (Taste-Sensing System SA 402B); parameters: unit not given here; conditions: reference solution 30 mM KCl + 0.3 mM tartaric acid as baseline, first measurement excluded; for Umami: sensor AAE; for Umami / Bitter / Sweet: detection threshold 0, room temperature; for Umami / Bitter / Sour / Salty: four replicates; for Sour: detection threshold -13, room temperature; for Salty: detection threshold -6, room temperature; for Sweet: measured five times
# Method in brief: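 Room-temperature electronic-tongue readings with five taste probes, calibrated against a reference of 30 mM KCl and 0.3 mM tartaric acid. Samples at 0.1 mg/mL and 1.0 mg/mL were measured four times, sweetness five times, and the first run was dropped. Detection cut-offs were sour −13, salty −6, others 0.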
# [5] = test system: human umbilical vein endothelial cells (HUVEC)
# Protocol: as §1
Substance,"Average cell viability, BEAS-2B [1]","Cell viability, BEAS-2B, Data1 [1]","Cell viability, BEAS-2B, Data2 [1]","Cell viability, BEAS-2B, Data3 [1]","Average cell viability, HEK293T [2]","Cell viability, HEK293T, Data1 [2]","Cell viability, HEK293T, Data2 [2]","Cell viability, HEK293T, Data3 [2]","Average cell viability, HPNE [3]","Cell viability, HPNE, Data1 [3]","Cell viability, HPNE, Data2 [3]","Cell viability, HPNE, Data3 [3]",Umami ([4]; peptide 0.1 mg/mL),Umami ([4]; peptide 1 mg/mL),"Bitter ([4]; sensor C00, peptide 0.1 mg/mL)","Bitter ([4]; sensor C00, peptide 1 mg/mL)","Sour ([4]; sensor CA0, peptide 0.1 mg/mL)","Sour ([4]; sensor CA0, peptide 1 mg/mL)","Salty ([4]; sensor CT0, peptide 0.1 mg/mL)","Salty ([4]; sensor CT0, peptide 1 mg/mL)",other results
ILEEQ [TaPep29],114.56,114.56,111.96,117.15,100.41,100.88,96.44,103.91,96.81,101.03,96.44,92.95,1.81,-4.08,7.69,3.20,-3.61,10.60,-20.79,9.53,"Sweet ([4]; sensor GL1, peptide 0.1 mg/mL): 7.74; Sweet ([4]; sensor GL1, peptide 1 mg/mL): -5.49; Average cell viability, HUVEC [5]: 98.96; Cell viability, HUVEC, Data1 [5]: 93.24; Cell viability, HUVEC, Data2 [5]: 109.93; Cell viability, HUVEC, Data3 [5]: 93.72"
KADGNR [TaPep4],96.81,99.00,95.11,96.31,102.74,102.11,102.49,103.63,97.84,95.76,97.39,100.36,1.35,-5.17,7.74,1.90,-2.92,13.79,-16.43,17.52,"Sweet ([4]; sensor GL1, peptide 0.1 mg/mL): 4.21; Sweet ([4]; sensor GL1, peptide 1 mg/mL): -5.50; Average cell viability, HUVEC [5]: 105.16; Cell viability, HUVEC, Data1 [5]: 113.12; Cell viability, HUVEC, Data2 [5]: 102.98; Cell viability, HUVEC, Data3 [5]: 99.39"
KGGEV [TaPep68],104.35,106.68,113.46,92.92,100.03,100.79,94.92,104.38,94.11,97.24,99.23,85.86,0.75,-4.79,7.39,3.94,-1.26,12.33,-15.75,12.33,"Sweet ([4]; sensor GL1, peptide 0.1 mg/mL): 3.06; Sweet ([4]; sensor GL1, peptide 1 mg/mL): -4.04; Average cell viability, HUVEC [5]: 103.75; Cell viability, HUVEC, Data1 [5]: 103.54; Cell viability, HUVEC, Data2 [5]: 113.44; Cell viability, HUVEC, Data3 [5]: 94.28"
KGYEAV [TaPep5],113.59,105.38,117.75,117.65,97.32,101.17,95.30,95.49,113.38,117.83,109.17,113.13,1.93,-5.17,7.90,bitterness suppression and -0.10,-4.04,12.61,-18.14,14.26,"Sweet ([4]; sensor GL1, peptide 0.1 mg/mL): 6.12; Sweet ([4]; sensor GL1, peptide 1 mg/mL): -5.63; Average cell viability, HUVEC [5]: 105.38; Cell viability, HUVEC, Data1 [5]: 115.43; Cell viability, HUVEC, Data2 [5]: 105.06; Cell viability, HUVEC, Data3 [5]: 95.64"
KNDESVD [TaPep48],98.21,105.18,91.23,98.21,103.91,103.15,102.59,105.99,102.66,87.85,109.32,110.82,1.19,-4.97,7.92,4.06,-2.20,12.29,-19.00,9.10,"Sweet ([4]; sensor GL1, peptide 0.1 mg/mL): 5.24; Sweet ([4]; sensor GL1, peptide 1 mg/mL): -3.88; Average cell viability, HUVEC [5]: 107.58; Cell viability, HUVEC, Data1 [5]: 110.24; Cell viability, HUVEC, Data2 [5]: 102.34; Cell viability, HUVEC, Data3 [5]: 110.16"
KTYSA [TaPep49],100.60,99.20,96.41,106.18,96.97,99.94,94.54,96.44,94.58,82.96,86.76,114.01,0.96,-3.34,7.26,2.53,-7.10,8.30,-15.59,11.00,"Sweet ([4]; sensor GL1, peptide 0.1 mg/mL): 7.69; Sweet ([4]; sensor GL1, peptide 1 mg/mL): -3.73; Average cell viability, HUVEC [5]: 102.29; Cell viability, HUVEC, Data1 [5]: 99.15; Cell viability, HUVEC, Data2 [5]: 103.94; Cell viability, HUVEC, Data3 [5]: 103.78"
LGDDLVK [TaPep19],111.70,111.27,110.77,113.06,106.88,110.63,106.37,103.63,100.07,102.93,114.51,82.76,2.00,-4.34,7.19,3.19,-4.23,10.91,-21.50,8.70,"Sweet ([4]; sensor GL1, peptide 0.1 mg/mL): 6.20; Sweet ([4]; sensor GL1, peptide 1 mg/mL): -4.08; Average cell viability, HUVEC [5]: 102.69; Cell viability, HUVEC, Data1 [5]: 92.52; Cell viability, HUVEC, Data2 [5]: 103.78; Cell viability, HUVEC, Data3 [5]: 111.76"
LGGDL [TaPep58],99.93,103.89,90.43,105.48,101.42,99.84,107.22,97.19,94.58,94.94,87.85,100.93,2.07,-4.23,7.49,3.43,-4.24,10.37,-21.68,10.46,"Sweet ([4]; sensor GL1, peptide 0.1 mg/mL): 7.50; Sweet ([4]; sensor GL1, peptide 1 mg/mL): -6.69; Average cell viability, HUVEC [5]: 99.81; Cell viability, HUVEC, Data1 [5]: 89.41; Cell viability, HUVEC, Data2 [5]: 103.78; Cell viability, HUVEC, Data3 [5]: 106.25"
LNDVE [TaPep66],98.04,103.39,89.73,101.00,101.96,96.81,102.97,106.09,110.62,96.14,118.00,117.70,1.83,-3.37,7.14,4.03,-3.77,8.49,-21.50,4.47,"Sweet ([4]; sensor GL1, peptide 0.1 mg/mL): 6.93; Sweet ([4]; sensor GL1, peptide 1 mg/mL): -3.10; Average cell viability, HUVEC [5]: 96.70; Cell viability, HUVEC, Data1 [5]: 88.85; Cell viability, HUVEC, Data2 [5]: 100.59; Cell viability, HUVEC, Data3 [5]: 100.67"
